Measurements taken from PubChem BioAssay AID2060887 (Molecular Pharmacology Branch, DTP, NCI, 2025).

Tested on: 782815-120-R-J1-PDC complex spheroid viability
Assay: Anticancer human tumor 782815-120-R-J1-PDC patient-derived colon adenocarcinoma cell line growth inhibition [RAS]
Settings: for IC50: curve of first compound; for viability, T/C: stronger effect = lower value
In short: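 Multi-cell-type spheroids: tumor cells plus HUVEC endothelial cells and mesenchymal stem cells. RAS-pathway inhibitors were combined with targeted agents, each dosed in half-log steps down from clinical Cmax, or from 10 microM when Cmax was unknown.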

[1] = second compound 0.000949 µM, first compound 0.0316 µM
[2] = second compound 0.000949 µM, first compound 0.1 µM
[3] = second compound 0.000949 µM, first compound 0.316 µM
[4] = second compound 0.000949 µM, first compound 1 µM
[5] = second compound 0.000949 µM, first compound 3.16 µM
[6] = second compound 0.000949 µM, first compound 10 µM
[7] = second compound 0.003 µM, first compound 0.0316 µM
[8] = second compound 0.003 µM, first compound 0.1 µM
[9] = second compound 0.003 µM, first compound 0.316 µM
[10] = second compound 0.003 µM, first compound 1 µM
[11] = second compound 0.003 µM, first compound 3.16 µM
[12] = second compound 0.003 µM, first compound 10 µM
[13] = second compound 0.00949 µM, first compound 0.0316 µM
[14] = second compound 0.00949 µM, first compound 0.1 µM
[15] = second compound 0.00949 µM, first compound 0.316 µM
[16] = second compound 0.00949 µM, first compound 1 µM
[17] = second compound 0.00949 µM, first compound 3.16 µM
[18] = second compound 0.00949 µM, first compound 10 µM
[19] = second compound 0.03 µM, first compound 0.0316 µM
[20] = second compound 0.03 µM, first compound 0.1 µM
[21] = second compound 0.03 µM, first compound 0.316 µM
[22] = second compound 0.03 µM, first compound 1 µM
[23] = second compound 0.03 µM, first compound 3.16 µM
[24] = second compound 0.03 µM, first compound 10 µM
[25] = second compound 0.0949 µM, first compound 0.0316 µM
[26] = second compound 0.0949 µM, first compound 0.1 µM
[27] = second compound 0.0949 µM, first compound 0.316 µM
[28] = second compound 0.0949 µM, first compound 1 µM
[29] = second compound 0.0949 µM, first compound 3.16 µM
[30] = second compound 0.0949 µM, first compound 10 µM
[31] = second compound 0.3 µM, first compound 0.0316 µM
[32] = second compound 0.3 µM, first compound 0.1 µM
[33] = second compound 0.3 µM, first compound 0.316 µM
[34] = second compound 0.3 µM, first compound 1 µM
[35] = second compound 0.3 µM, first compound 3.16 µM
[36] = second compound 0.3 µM, first compound 10 µM
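Further: spheroids exposed to compounds for 7 days before reading.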
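Wherever viability, T/C is given: 100% = DMSO vehicle control viability.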

CC(=O)OC12COC1CC(O)C1(C)C(=O)C(O)C3=C(C)C(OC(=O)C(O)C(NC(=O)OC(C)(C)C)c4ccccc4)CC(O)(C(OC(=O)c4ccccc4)C21)C3(C)C (stereo not given) + CCn1c(-c2cc(N3CCN(C)CC3)cnc2C(C)OC)c2c3cc(ccc31)-c1csc(n1)CC(NC(=O)C1CC1C)C(=O)N1CCCC(N1)C(=O)OCC(C)(C)C2
IC50 (second compound 0.000949 µM): < 31.6 nM
IC50 (second compound 0.003 µM): < 31.6 nM
IC50 (second compound 0.00949 µM): < 31.6 nM
IC50 (second compound 0.03 µM): < 31.6 nM
IC50 (second compound 0.0949 µM): < 31.6 nM
IC50 (second compound 0.3 µM): < 31.6 nM
viability, T/C [1]: 26%
viability, T/C [2]: 27.8%
viability, T/C [3]: 23.1%
viability, T/C [4]: 28.1%
viability, T/C [5]: 27.1%
viability, T/C [6]: 32.5%
viability, T/C [7]: 25.8%
viability, T/C [8]: 24.6%
viability, T/C [9]: 23.2%
viability, T/C [10]: 22%
viability, T/C [11]: 21.3%
viability, T/C [12]: 25.7%
viability, T/C [13]: 19.1%
viability, T/C [14]: 16.4%
viability, T/C [15]: 15.1%
viability, T/C [16]: 16.4%
viability, T/C [17]: 19.1%
viability, T/C [18]: 16.1%
viability, T/C [19]: 12.5%
viability, T/C [20]: 13.5%
viability, T/C [21]: 13.3%
viability, T/C [22]: 13.3%
viability, T/C [23]: 14.8%
viability, T/C [24]: 13.3%
viability, T/C [25]: 12.6%
viability, T/C [26]: 12.4%
viability, T/C [27]: 10.3%
viability, T/C [28]: 12.2%
viability, T/C [29]: 11.3%
viability, T/C [30]: 11.3%
viability, T/C [31]: 13%
viability, T/C [32]: 12.6%
viability, T/C [33]: 9.92%
viability, T/C [34]: 9.28%
viability, T/C [35]: 10.9%
viability, T/C [36]: 13%

CCC(CC)c1cc(NC2CCC(N)C2)n2nccc2n1 (stereo not given) + CCn1c(-c2cc(N3CCN(C)CC3)cnc2C(C)OC)c2c3cc(ccc31)-c1csc(n1)CC(NC(=O)C1CC1C)C(=O)N1CCCC(N1)C(=O)OCC(C)(C)C2
IC50 (second compound 0.000949 µM): 2020 nM
IC50 (second compound 0.003 µM): 1060 nM
IC50 (second compound 0.00949 µM): < 31.6 nM
IC50 (second compound 0.03 µM): < 31.6 nM
IC50 (second compound 0.0949 µM): < 31.6 nM
IC50 (second compound 0.3 µM): < 31.6 nM
viability, T/C [1]: 69.7%
viability, T/C [2]: 75.9%
viability, T/C [3]: 74.2%
viability, T/C [4]: 84.7%
viability, T/C [5]: 33.4%
viability, T/C [6]: 1.4%
viability, T/C [7]: 56.2%
viability, T/C [8]: 53.3%
viability, T/C [9]: 57.4%
viability, T/C [10]: 52%
viability, T/C [11]: 12.1%
viability, T/C [12]: 1.08%
viability, T/C [13]: 32.4%
viability, T/C [14]: 37.1%
viability, T/C [15]: 33.6%
viability, T/C [16]: 33.7%
viability, T/C [17]: 6.65%
viability, T/C [18]: 1.2%
viability, T/C [19]: 21.2%
viability, T/C [20]: 20%
viability, T/C [21]: 19.9%
viability, T/C [22]: 20.9%
viability, T/C [23]: 3.02%
viability, T/C [24]: 1.53%
viability, T/C [25]: 18.6%
viability, T/C [26]: 19.7%
viability, T/C [27]: 16.1%
viability, T/C [28]: 16.4%
viability, T/C [29]: 2.74%
viability, T/C [30]: 1.31%
viability, T/C [31]: 16.6%
viability, T/C [32]: 15.1%
viability, T/C [33]: 16.5%
viability, T/C [34]: 15.2%
viability, T/C [35]: 1.69%
viability, T/C [36]: 1.33%

Cc1nc(N2CCC3(CC2)COC(C)C3N)c(CO)nc1Sc1ccnc(N)c1Cl (stereo not given) + CCn1c(-c2cc(N3CCN(C)CC3)cnc2C(C)OC)c2c3cc(ccc31)-c1csc(n1)CC(NC(=O)C1CC1C)C(=O)N1CCCC(N1)C(=O)OCC(C)(C)C2
IC50 (second compound 0.000949 µM): > 10000 nM
IC50 (second compound 0.003 µM): > 10000 nM
IC50 (second compound 0.00949 µM): < 31.6 nM
IC50 (second compound 0.03 µM): < 31.6 nM
IC50 (second compound 0.0949 µM): < 31.6 nM
IC50 (second compound 0.3 µM): < 31.6 nM
viability, T/C [1]: 73.5%
viability, T/C [2]: 79.3%
viability, T/C [3]: 74.7%
viability, T/C [4]: 73%
viability, T/C [5]: 69.4%
viability, T/C [6]: 69.9%
viability, T/C [7]: 58.5%
viability, T/C [8]: 54.6%
viability, T/C [9]: 56%
viability, T/C [10]: 49%
viability, T/C [11]: 58.4%
viability, T/C [12]: 49%
viability, T/C [13]: 29.1%
viability, T/C [14]: 28.2%
viability, T/C [15]: 24.1%
viability, T/C [16]: 32.1%
viability, T/C [17]: 30.3%
viability, T/C [18]: 28.3%
viability, T/C [19]: 17.8%
viability, T/C [20]: 19%
viability, T/C [21]: 18.6%
viability, T/C [22]: 18.5%
viability, T/C [23]: 22.9%
viability, T/C [24]: 19.3%
viability, T/C [25]: 15.9%
viability, T/C [26]: 17%
viability, T/C [27]: 14.5%
viability, T/C [28]: 15.5%
viability, T/C [29]: 17.3%
viability, T/C [30]: 15.4%
viability, T/C [31]: 14.3%
viability, T/C [32]: 13.8%
viability, T/C [33]: 15.9%
viability, T/C [34]: 16.4%
viability, T/C [35]: 21.3%
viability, T/C [36]: 18.6%

NC1c2ccccc2OC12CCN(c1cnc3c(N4CCCc5ncccc54)n[nH]c3n1)CC2 (stereo not given) + CCn1c(-c2cc(N3CCN(C)CC3)cnc2C(C)OC)c2c3cc(ccc31)-c1csc(n1)CC(NC(=O)C1CC1C)C(=O)N1CCCC(N1)C(=O)OCC(C)(C)C2
IC50 (second compound 0.000949 µM): > 10000 nM
IC50 (second compound 0.003 µM): 1660 nM
IC50 (second compound 0.00949 µM): < 31.6 nM
IC50 (second compound 0.03 µM): < 31.6 nM
IC50 (second compound 0.0949 µM): < 31.6 nM
IC50 (second compound 0.3 µM): < 31.6 nM
viability, T/C [1]: 74.5%
viability, T/C [2]: 74.1%
viability, T/C [3]: 73.3%
viability, T/C [4]: 67.9%
viability, T/C [5]: 78.7%
viability, T/C [6]: 67.8%
viability, T/C [7]: 50.3%
viability, T/C [8]: 53.9%
viability, T/C [9]: 56.5%
viability, T/C [10]: 47.6%
viability, T/C [11]: 49.1%
viability, T/C [12]: 44%
viability, T/C [13]: 26.1%
viability, T/C [14]: 33.1%
viability, T/C [15]: 23.6%
viability, T/C [16]: 23.7%
viability, T/C [17]: 24.4%
viability, T/C [18]: 21.2%
viability, T/C [19]: 15.9%
viability, T/C [20]: 17.1%
viability, T/C [21]: 18.2%
viability, T/C [22]: 16.2%
viability, T/C [23]: 18.7%
viability, T/C [24]: 14.6%
viability, T/C [25]: 16.4%
viability, T/C [26]: 17.4%
viability, T/C [27]: 18.8%
viability, T/C [28]: 20.6%
viability, T/C [29]: 18.8%
viability, T/C [30]: 13.6%
viability, T/C [31]: 16.4%
viability, T/C [32]: 15.7%
viability, T/C [33]: 17.6%
viability, T/C [34]: 16.4%
viability, T/C [35]: 19.1%
viability, T/C [36]: 11.8%

Nc1ccn(C2OC(CO)C(O)C2(F)F)c(=O)n1 (stereo not given) + CCn1c(-c2cc(N3CCN(C)CC3)cnc2C(C)OC)c2c3cc(ccc31)-c1csc(n1)CC(NC(=O)C1CC1C)C(=O)N1CCCC(N1)C(=O)OCC(C)(C)C2
IC50 (second compound 0.000949 µM): 20.7 nM
IC50 (second compound 0.003 µM): 12.7 nM
IC50 (second compound 0.00949 µM): < 3.16 nM
IC50 (second compound 0.03 µM): < 3.16 nM
IC50 (second compound 0.0949 µM): < 3.16 nM
IC50 (second compound 0.3 µM): < 3.16 nM
viability, T/C (second compound 0.000949 µM, first compound 0.00316 µM): 74%
viability, T/C (second compound 0.000949 µM, first compound 0.01 µM): 53.4%
viability, T/C [1]: 48.6%
viability, T/C [2]: 35.9%
viability, T/C [3]: 28.4%
viability, T/C [4]: 23.6%
viability, T/C (second compound 0.003 µM, first compound 0.00316 µM): 60.9%
viability, T/C (second compound 0.003 µM, first compound 0.01 µM): 51.7%
viability, T/C [7]: 40%
viability, T/C [8]: 25%
viability, T/C [9]: 25.5%
viability, T/C [10]: 23.7%
viability, T/C (second compound 0.00949 µM, first compound 0.00316 µM): 30.8%
viability, T/C (second compound 0.00949 µM, first compound 0.01 µM): 33.3%
viability, T/C [13]: 23.1%
viability, T/C [14]: 23%
viability, T/C [15]: 17.1%
viability, T/C [16]: 18%
viability, T/C (second compound 0.03 µM, first compound 0.00316 µM): 20.1%
viability, T/C (second compound 0.03 µM, first compound 0.01 µM): 21.2%
viability, T/C [19]: 15.7%
viability, T/C [20]: 13.3%
viability, T/C [21]: 13.7%
viability, T/C [22]: 14.1%
viability, T/C (second compound 0.0949 µM, first compound 0.00316 µM): 15.7%
viability, T/C (second compound 0.0949 µM, first compound 0.01 µM): 15.9%
viability, T/C [25]: 13.3%
viability, T/C [26]: 11.6%
viability, T/C [27]: 13.2%
viability, T/C [28]: 10.7%
viability, T/C (second compound 0.3 µM, first compound 0.00316 µM): 15.7%
viability, T/C (second compound 0.3 µM, first compound 0.01 µM): 16.1%
viability, T/C [31]: 16.1%
viability, T/C [32]: 13.2%
viability, T/C [33]: 12.6%
viability, T/C [34]: 10.2%
